Consider 4 compounds from article PMC9598318, “Latent Tuberculosis: A Promising New Compound to Treat Non-Replicating and Intramacrophagic Mycobacteria” (Biomedicines, 2022).

Converted amounts (≈) assume the structure as drawn. “And” between values parts separate entries of the source, which are not always exact repeats. Equal entries are not always repeated. Where two headings read alike, the source gives them in different places.

The test system of series [1] is M. tuberculosis. Briefly: Time-kill curve. The format is cell-based, Mycobacterium tuberculosis. The following applies: MIC and 2× MIC, 15 days.
Series [2] relates to MRC-5 (ATCC CCL-171) cells.
Series [3] deals with MRC-5 (ATCC CCL-171) cells. The series is described as follows: cells. The following applies: Homo sapiens.
Series [4] deals with non-replicating (NRP) M. tuberculosis. Briefly: LORA, MIC90 against non-replicating M. tuberculosis. It is filed as cell-based, Mycobacterium tuberculosis.
Experimental: The LORA method was used to determine the MIC90 of compounds against latent/non-replicating (NRP) mycobacteria. According to Wayne and Sohaskey (2001) [18], under a low-oxygen atmosphere, NRP mycobacteria, containing the plasmid pFCA-ABCDE that encodes a luminescent protein in aerated environments, were plated in a 96-well plate with 100 mL of compounds in a range of 0.39 to 100 μg/mL.
Series [5] deals with Mycobacterium tuberculosis H37Rv (ATCC 27294), replicating. The series is described as follows: MIC90 against replicating M. tuberculosis (resazurin microtiter assay, REMA). The format is cell-based. To be noted: 7 days; for MIC90: Mycobacterium tuberculosis, 168 h. (In general: The colour change of resazurin is a common sign of viable cells or microbes.)
The subject of series [6] is J774A.1 (ATCC TIB-67) cells. Briefly: Cytotoxicity against macrophage cells (resazurin). It is filed as cell-based, mice. To be noted: for IC50: Mus musculus.
For series [7], the system named is latent tuberculosis infection (LTBI). The following applies: cited from earlier work; for Efficacy in preventing progression to active tuberculosis infection: LTBI patients, monotherapy, ref Huaman et al. (2019) [28].
The subject of series [8] is Salmonella Typhimurium (ATCC 14028). Briefly: Activity spectrum, microdilution. The format is cell-based. The following applies: 24 h, absorbance 600 nm.
Series [9] has as its system Pseudomonas aeruginosa (ATCC 13388). The series is described as follows: Activity spectrum, microdilution. The format is cell-based. To be noted: 24 h, absorbance 600 nm. Background: Dilution methods test growth across graded concentrations, often in twofold steps.
Series [10] relates to Escherichia coli (ATCC 11775). The series is described as follows: Activity spectrum, microdilution. The following applies: 24 h, absorbance 600 nm. The format is cell-based.
In series [11] the test system is Staphylococcus aureus (ATCC 6538). Briefly: Activity spectrum, microdilution. The format is cell-based. The following applies: 24 h, absorbance 600 nm.
Series [12] has as its system Mycobacterium smegmatis mc2155 (ATCC 700084). Briefly: MIC90 against M. smegmatis (resazurin). It is filed as cell-based. To be noted: for Spectrum activity, M. smegmatis: 2 days, resazurin.
Series [13] concerns intramacrophagic M. tuberculosis H37Rv. The series is described as follows: Intramacrophagic activity (J774A.1 macrophages infected with M. tuberculosis H37Rv, CFU count). It is filed as cell-based, Mycobacterium tuberculosis. To be noted: 5× MIC (6.15 μM), 3 days of exposure.
[14] abbreviates: Mycobacterium tuberculosis, LORA, low-oxygen.
Where [15] appears, read: J774A.1 ATCC TIB-67, 24 h, J774A.1, 24 h.
Where [16] appears, read: J774A.1 ATCC TIB-67, 48 h, J774A.1, 48 h.
Setting [17] is: J774A.1 ATCC TIB-67, 72 h, J774A.1, 72 h.

Consider `NNC(=O)c1ccncc1` [Isoniazid], for which the “death profile in time-kill curve (bactericidal = 3 log10 CFU/mL decrease)” value in series [1] is “bacteriostatic”. Besides, the “IS (selectivity index)” value in series [2] and in series [6] was >1666.66 throughout. Further, the IC50 was > 100 µg/mL in [3] (MRC5, 24 h); > 100 µg/mL in series [3] (MRC5, 48 h); > 100 µg/mL in [3] (MRC5, 72 h); > 100 µg/mL in [6] (setting [15]); > 100 µg/mL in series [6] (setting [16]); > 100 µg/mL in series [6] (setting [17]). Moreover, in [4] (LORA assay), the “inhibition of non-replicating bacteria” value is given as “non-inhibition”. In addition, the MIC90 is >328.13 µM in [4] (LORA, low-oxygen); > 300 µM and > 45 µg/mL in series [4] (setting [14]); 0.44 µM and 0.06 µg/mL in series [5]. In addition, the “Efficacy in preventing progression to active tuberculosis infection” value in series [7] is 90%. Also, the “TB activation after LTBI treatment” value in series [7] (share of cases, INH monotherapy) is given as 10%.
`CNC(C)C1CCC(N)C(OC2C(N)CC(N)C(OC3OCC(C)(O)C(NC)C3O)C2O)O1` (stereo not drawn) [Gentamicin]: the “Spectrum activity, S. typhimurium” value in [8] came to 1.16 ± 0.38 µg/mL. Further, the “Spectrum activity, P. aeruginosa” value in series [9] was 2.02 ± 0.66 µg/mL. In [10], the “Spectrum activity, E. coli” value turned out to be 5.07 ± 0.14 µg/mL. For the same compound, the “Spectrum activity, S. aureus” value in series [11] was determined as 3.97 ± 2.35 µg/mL.
Regarding `CO[C@H]1/C=C/O[C@@]2(C)Oc3c(C)c(O)c4c(O)c(c(/C=N/N5CCN(C)CC5)c(O)c4c3C2=O)NC(=O)/C(C)=C\C=C\[C@H](C)[C@H](O)[C@@H](C)[C@@H](O)[C@@H](C)[C@H](OC(C)=O)[C@@H]1C` [Rifampicin], in series [1], the “death profile in time-kill curve (bactericidal = 3 log10 CFU/mL decrease)” value is “bacteriostatic”. The MIC90 in series [4] (setting [14]) is < 0.36 µM and < 0.3 µg/mL; in series [5] it was 0.05 µM and 0.04 µg/mL. For the same compound, the “Efficacy in preventing progression to active tuberculosis infection” value in series [7] was ~90%. In addition, the “Spectrum activity, M. smegmatis” value in series [12] was determined as 2.4 ± 1.5 µg/mL.
`CC1=NN(C(=O)c2ccncc2)C(O)(c2ccccc2)C1` (stereo not drawn) [Hydrazone 14]: the “cytotoxicity” value in series [2] is “no detectable cytotoxicity”. Also, the “IS (selectivity index)” value in series [2] (IC50/MIC90, MRC-5, 24 h) is on record as >289.02; in series [2] (IC50/MIC90, MRC-5, 48 h) it was >289.02; in series [2] (IC50/MIC90, MRC-5, 72 h), >289.02; in [6] (IC50/MIC90, J774A.1, 24 h) it was >289.02; in series [6] (IC50/MIC90, J774A.1, 48 h), 240.88; in series [6] (IC50/MIC90, J774A.1, 72 h), 236.46. In addition, the IC50 in series [3] (MRC5, 24 h) was > 100 µg/mL; in [3] (MRC5, 48 h), > 100 µg/mL; in [3] (MRC5, 72 h), > 100 µg/mL; in series [6] (setting [15]), > 100 µg/mL; in series [6] (setting [16]), 83.3 ± 28.9 µg/mL (≈ 296 µM); in series [6] (setting [17]), 81.8 ± 31.5 µg/mL (≈ 291 µM). Also, the “Spectrum activity, S. typhimurium” value in [8] is >100 µg/mL. Further, in series [4] (LORA, low-oxygen), the “MIC90 Non-Replicating” value was 6.31 ± 5.72 µM (≈ 1.78 µg/mL). For the same compound, the MIC90 was 6.31 µM and 1.77 µg/mL in series [4] (setting [14]); 1.23 µM and 0.35 µg/mL in series [5]. For the same compound, the “MIC90 Replicating” value in [5] was 1.23 ± 0.53 µM (≈ 0.346 µg/mL). In [9], the “Spectrum activity, P. aeruginosa” value was >100 µg/mL. In addition, in series [13], the “intramacrophagic inhibition (log reduction vs untreated)” value came out at 0.5 log10 CFU/mL. In addition, the “Spectrum activity, E. coli” value in series [10] was >100 µg/mL. The “Spectrum activity, S. aureus” value in [11] was >100 µg/mL. Further, the “growth inhibition of M. smegmatis” value in series [12] is “unable to inhibit the mycobacteria growth”. For the same compound, in series [12], the “Spectrum activity, M. smegmatis” value is >25.0 µg/mL.

What is called IC50 is the concentration that gives 50% inhibition. The term MIC90 denotes the lowest concentration that inhibits either 90% of growth or 90% of the strains tested, depending on the study. Read a high MIC90 as lower susceptibility.
